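These data come from cells grown in 96-well plates and exposed to compound for 48 hours at five concentrations. TGI marks complete inhibition of growth.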
How the values were obtained:
Experiment in all cases: NCI anticancer screen, dose series, 48 h
DU-145 prostate = tested on: DU-145 prostate
SK-OV-3 ovarian = tested on: SK-OV-3 ovarian
MCF7 breast = tested on: MCF7 breast
SK-MEL-2 melanoma = tested on: SK-MEL-2 melanoma
SNB-75 CNS = tested on: SNB-75 CNS
A498 renal = tested on: A498 renal
HCT-15 colon = tested on: HCT-15 colon
IGROV1 ovarian = tested on: IGROV1 ovarian
PC-3 prostate = tested on: PC-3 prostate
KM12 colon = tested on: KM12 colon
NCI-H23 lung = tested on: NCI-H23 lung
U251 CNS = tested on: U251 CNS
LOX IMVI melanoma = tested on: LOX IMVI melanoma
NCI-H226 lung = tested on: NCI-H226 lung
SN12C renal = tested on: SN12C renal
OVCAR-4 ovarian = tested on: OVCAR-4 ovarian
NCI-H522 lung = tested on: NCI-H522 lung
MALME-3M melanoma = tested on: MALME-3M melanoma
MDA-MB-231 breast = tested on: MDA-MB-231 breast

Structure (SMILES) | TGI (DU-145 prostate) | TGI (SK-OV-3 ovarian) | TGI (MCF7 breast) | TGI (SK-MEL-2 melanoma) | TGI (SNB-75 CNS) | TGI (A498 renal) | TGI (HCT-15 colon) | TGI (IGROV1 ovarian) | TGI (PC-3 prostate) | TGI (KM12 colon) | TGI (NCI-H23 lung) | TGI (U251 CNS) | TGI (LOX IMVI melanoma) | TGI (NCI-H226 lung) | TGI (SN12C renal) | TGI (OVCAR-4 ovarian) | TGI (NCI-H522 lung) | TGI (MALME-3M melanoma) | TGI (MDA-MB-231 breast)
N#C/C(C(=O)Nc1ccc(Cl)cc1)=C(/N)N1CCOCC1 | > 100 µM | > 100 µM | > 100 µM | > 100 µM | > 100 µM | > 100 µM | > 100 µM | > 100 µM | > 100 µM | > 100 µM | > 100 µM | > 100 µM | > 100 µM | > 100 µM | > 100 µM |  |  |  | 
Cc1cc2cc3ccccc3cc2c(=O)[nH]1 | > 10 µM | > 10 µM | > 10 µM |  | > 10 µM |  |  | > 10 µM | > 10 µM | > 10 µM | > 10 µM | > 10 µM | > 10 µM | > 10 µM |  | > 10 µM | > 10 µM |  | 
O=c1c2ccccc2nc2sc(/N=C/C=C/c3ccccc3)nn12 | > 100 µM | > 100 µM | > 100 µM | > 100 µM | > 100 µM | > 100 µM | > 100 µM | > 100 µM | > 100 µM | > 100 µM | > 100 µM | > 100 µM | > 100 µM | > 100 µM | > 100 µM | > 100 µM | > 100 µM | > 100 µM | 
COc1c(Br)cc(/C=C(\C#N)c2ccccn2)cc1Br | > 100 µM | > 100 µM | > 100 µM | 41.8 µM | 17.1 µM | 9.57 µM | > 100 µM | > 100 µM | > 100 µM | > 100 µM | > 100 µM | > 100 µM |  | > 100 µM | > 100 µM |  | > 100 µM | > 100 µM | 
COC(=O)/C=C(\C)CC/C=C(\C)CCC(O)C(C)(C)O (stereo not drawn) |  | > 100 µM | > 100 µM | 36.3 µM | > 100 µM | > 100 µM | 48 µM | > 100 µM | 30.8 µM | 28.4 µM | 98.3 µM | 79.3 µM | 31.5 µM | > 100 µM | 37.5 µM | > 100 µM |  | 41.5 µM | > 100 µM
Cc1cc2c(cc1C)C(=O)/C(=C/c1ccccc1C(=O)O)C2 | > 100 µM |  | > 100 µM | > 100 µM | > 100 µM | 88.6 µM | > 100 µM | > 100 µM | > 100 µM | > 100 µM | 66.7 µM | 68.8 µM | 83.5 µM | 57.8 µM | > 100 µM | > 100 µM | > 100 µM | > 100 µM | 
COC(=O)C(/C(=N/N)C(=O)Nc1cccc(O)c1)c1nc2ccccc2[nH]c1=O (stereo not drawn) |  | > 100 µM | > 100 µM | > 100 µM | > 100 µM | > 100 µM | > 100 µM | > 100 µM | > 100 µM | > 100 µM | > 100 µM | > 100 µM | > 100 µM | > 100 µM | > 100 µM | > 100 µM | > 100 µM |  | > 100 µM
N#CC1=C(N)OC(c2cccc([N+](=O)[O-])c2)C1(C#N)C#N (stereo not drawn) | 31.2 µM | > 100 µM | 48.5 µM | 40.4 µM | 24.7 µM | 36.7 µM | 34.3 µM | 35.4 µM | 51.4 µM |  | 39.3 µM | > 100 µM | 28.4 µM | 94.3 µM | > 100 µM |  | 28.8 µM | 49.3 µM | 
Cc1cccc(/C=N/NC(=S)N(C)CCc2ccccn2)n1 |  | > 100 µM | > 100 µM | > 100 µM | 21.9 µM | 1.03 µM | > 100 µM | 24.6 µM | > 100 µM | > 100 µM | > 100 µM | > 100 µM | > 100 µM | 19.6 µM | > 100 µM | > 100 µM | > 100 µM | > 54 µM | > 100 µM
O=S(=O)(Oc1ccc2ccccc2c1-c1c(OS(=O)(=O)C(F)(F)F)ccc2ccccc12)C(F)(F)F |  | > 100 µM | > 100 µM | > 100 µM | > 100 µM | > 100 µM | > 100 µM | > 100 µM | > 100 µM | > 100 µM | > 100 µM | > 100 µM |  | > 100 µM |  | > 100 µM | > 100 µM | > 100 µM | > 100 µM
CC(NC(=O)OC(C)(C)C)C(=O)NC(Cc1ccccc1)C(=O)NCC(=O)Oc1c(Cl)c(Cl)c(Cl)c(Cl)c1Cl (stereo not drawn) |  |  | 89.6 µM | 73.1 µM | > 100 µM | 47.8 µM |  | 44.2 µM | 49.4 µM | > 100 µM | 40.7 µM | 46.7 µM |  | 43.5 µM | 30.4 µM |  |  | 49.2 µM | 36 µM
Cc1cc(-c2cscn2)c(O)c([N+](=O)[O-])c1 |  | 96 µM | > 100 µM | > 100 µM |  | 99.7 µM | > 100 µM | > 100 µM | > 100 µM |  | > 100 µM |  | > 100 µM |  | > 100 µM | > 100 µM |  | > 100 µM | 
